Data published in patent US20150240220A1, “NOVEL UDP-GLYCOSYLTRANSFERASE DERIVED FROM GINSENG AND USE THEREOF” (KOREA ADVANCED INSTITUTE OF SCIENCE AND TECHNOLOGY, priority 2012, published 2015).

Experiments:
PgUGT74A1 [1] = experiment: In vitro glycosyltransferase assay with purified recombinant PgUGT74A1; assay type: biochemical, Panax ginseng; details: ginsenoside 5 mM, UDP-glucose 50 mM, enzyme 30 μg, pH 7, 35° C., 12 hours
Protocol: (§1) A glycosyltransferase assay was performed in a reaction buffer (10 mM PBS buffer, pH 7) containing the purified PgUGT74A1 or PgUGT94B1 (30 μg), a ginsenoside compound (5 mM) and UDP-glucose (50 mM). For this assay, 10 different types of ginsenosides including PPD (Protopanaxadiol), PPT (Protopanaxatriol), Compound K (C-K), ginsenoside Rg3, Rh2, F2, Rd, Rg2, Rh1 and F1 were used, and the structures of the ginsenosides are shown in FIG. 1.
(§2) The reaction mixture was incubated at 35° C. for 12 hours, and then the products were analyzed by thin-layer chromatography (TLC) or high performance liquid chromatography (HPLC).
(§3) TLC analysis was performed using a mobile phase (acetone:methanol:DDW=65:35:10 vol/vol) and a 60F254 silica gel plate (Merck, Germany). The resolved product on the TLC plate was detected by spraying the plate with 10% (vol/vol) sulfuric acid (H2SO4) and heating it at 110° C. for 5 minutes.
(§4) HPLC analysis was performed using ODS (2) C18 column (Phenomenex, USA). Water and acetonitrile gradient application time; and a component ratio are as follows: at a flow rate of 1 ml per minute for 0 minute, 68% water and 32% acetonitrile; 8 minutes, 35% water and 65% acetonitrile; 12 minutes, 0% water and 100% acetonitrile; 20 minutes, 0% water and 100% acetonitrile; 20.1 minutes, 68% water and 32% acetonitrile; and 28 minutes, 68% water and 32% acetonitrile.
(§5) Ginsenosides were detected by using a UV-detector (Younglin, Korea) at a wavelength of 203 nm.
First, the recombinant PgUGT of Example 1, PgUGT74A1, was incubated with 10 different types of ginsenosides (PPD, C-K, Rh2, F2, Rg3, Rd, Rg2, Rh1, F1 and PPT) in the presence of UDP-glucose, and the products converted by the recombinant PgUGT were analyzed by TLC.

PgUGT94B1 [2] = experiment: In vitro glycosyltransferase assay with purified recombinant PgUGT94B1; assay type: biochemical, Panax ginseng; details: ginsenoside 5 mM, UDP-glucose 50 mM, enzyme 30 μg, pH 7, 35° C., 12 hours
Protocol: as §1, §2, §3, §4, §5
First, the recombinant PgUGT of Example 1, PgUGT94B1, was incubated with 10 different types of ginsenosides (PPD, C-K, Rh2, F2, Rg3, Rd, Rg2, Rh1, F1 and PPT) in the presence of UDP-glucose, and then the products converted by the recombinant PgUGT were analyzed by TLC.

PgUGT74A1 and PgUGT94B1 = experiment: In vitro glycosyltransferase assay with both PgUGT74A1 and PgUGT94B1 in a single reaction tube; assay type: biochemical, Panax ginseng; details: both enzymes in a single reaction tube, in the presence of UDP-Glc
Protocol: PPD (upper panel) or C-K (lower panel) was incubated with both of PgUGT74A1 and PgUGT94B1 in the presence of UDP-Glc. Then the reaction mixture was analyzed by HPLC. […] Rg3 and Rd converted by the above two enzymes are marked as black triangles;
as §1, §2
HPLC analysis was performed using ODS (2) C18 column (Phenomenex, USA). […]
Ginsenosides were detected by using a UV-detector (Younglin, Korea) at a wavelength of 203 nm. […]

PgUGT74A1 [3] = experiment: Quantitative RT-PCR of PgUGT74A1 expression in ginseng leaves sprayed with MeJA; assay type: in vivo, Panax ginseng; details: 200 μM MeJA sprayed on leaves of 15-month-old ginseng everyday for 5 days, samples on 6th day; normalized to tubulin
Protocol: (§6) Total RNA was isolated from the leaf or root of 15-month-old ginseng using a spectrum plant total RNA kit (Sigma-Aldrich). 200 μM methyl jasmonate (MeJA) was sprayed onto the leaves of ginseng everyday for a total of 5 days, and samples were collected on the 6th day. The 1 μg of total RNA was used for cDNA synthesis.
(§7) Expression levels of different genes were examined by a quantitative RT-PCR using the primer sets listed in the following Table 2, and the results were normalized to the expression level of tubulin.
(§8) The 15-month old ginseng grown in a growth chamber under LD conditions was collected, and MeJA was sprayed onto its leaves everyday for a total of 5 days. To analyze expression level of the ginsenoside biosynthetic genes, samples were collected on the 6th days. […] However, expression of PgPPTS was not induced by MeJA under the conditions of the present invention.

PgUGT94B1 [4] = experiment: Quantitative RT-PCR of PgUGT94B1 expression in ginseng leaves sprayed with MeJA; assay type: in vivo, Panax ginseng; details: 200 μM MeJA sprayed on leaves of 15-month-old ginseng everyday for 5 days, samples on 6th day; normalized to tubulin
Protocol: as §6, §7, §8

[5] = system: PgDS (dammarenediol-II synthase); experiment: Quantitative RT-PCR of PgDS expression in ginseng leaves sprayed with MeJA; assay type: in vivo, Panax ginseng; details: 200 μM MeJA sprayed on leaves of 15-month-old ginseng everyday for 5 days, samples on 6th day; normalized to tubulin
Protocol: as §6, §7, §8

[6] = system: PgPPDS (protopanaxadiol synthase); experiment: Quantitative RT-PCR of PgPPDS expression in ginseng leaves sprayed with MeJA; assay type: in vivo, Panax ginseng; details: 200 μM MeJA sprayed on leaves of 15-month-old ginseng everyday for 5 days, samples on 6th day; normalized to tubulin
Protocol: as §6, §7, §8

[7] = system: PgPPTS (protopanaxatriol synthase); experiment: Quantitative RT-PCR of PgPPTS expression in ginseng leaves sprayed with MeJA; assay type: in vivo, Panax ginseng; details: 200 μM MeJA sprayed on leaves of 15-month-old ginseng everyday for 5 days, samples on 6th day; normalized to tubulin
Protocol: as §6, §7, §8

ginseng = experiment: Concentrations of 4 major ginsenosides after spraying MeJA onto the leaf of ginseng; assay type: in vivo, Panax ginseng; details: MeJA sprayed onto the leaf of ginseng; versus untreated
Protocol: as §6
In this regard, the concentrations of 4 major ginsenosides were measured after spraying MeJA onto the leaf of ginseng. The treatment of MeJA increased the concentrations of two PPD-type ginsenosides, Rd and Rb1, by 1.55 and 1.14 times respectively (FIG. 6c). In addition, the treatment of MeJA increased the concentrations of two PPT-type ginsenosides, Rg1 and Re, by 2.61 and 1.45 times respectively.

Q: For `CC(C)=CCCC(C)(O)[C@H]1CC[C@]2(C)[C@@H]1[C@H](O)C[C@@H]1[C@@]3(C)CC[C@H](O)C(C)(C)[C@@H]3CC[C@]12C` (stereo in doubt) [PPD, Protopanaxadiol], which “conversion of the ginsenoside by PgUGT74A1 (HPLC analysis)” value (PgUGT74A1 [1]) is on record?
A: The value was “converted PPD and C-K into ginsenoside Rh2 and F2 respectively”.

Q: And the “conversion of the ginsenoside by PgUGT74A1 (TLC analysis)” value (PgUGT74A1 [1])?
A: Its value is “converted PPD and C-K into ginsenoside Rh2 and ginsenoside F2 respectively”.

Q: And the “conversion of the ginsenoside by PgUGT94B1 (HPLC analysis)” value (PgUGT94B1 [2])?
A: The value was “did not convert PPD and C-K into other ginsenosides”.

Q: And the “conversion of the ginsenoside by PgUGT74A1 and PgUGT94B1 together (HPLC analysis)” value (PgUGT74A1 and PgUGT94B1)?
A: The value was “successfully converted into Rg3”.

Q: Which “conversion of the ginsenoside by PgUGT74A1 (HPLC analysis)” value (PgUGT74A1 [1]) does the source give for `CC(C)=CCC[C@](C)(O[C@@H]1O[C@H](CO)[C@@H](O)[C@H](O)[C@H]1O)[C@H]1CC[C@]2(C)[C@@H]1[C@H](O)C[C@@H]1[C@@]3(C)CC[C@H](O)C(C)(C)[C@@H]3CC[C@]12C` [C-K, Compound K] here?
A: Its value is “converted PPD and C-K into ginsenoside Rh2 and F2 respectively”.

Q: What about the “conversion of the ginsenoside by PgUGT74A1 (TLC analysis)” value (PgUGT74A1 [1]) of the same molecule?
A: Its value is “converted PPD and C-K into ginsenoside Rh2 and ginsenoside F2 respectively”.

Q: And the “conversion of the ginsenoside by PgUGT94B1 (HPLC analysis)” value (PgUGT94B1 [2])?
A: The value was “did not convert PPD and C-K into other ginsenosides”.

Q: What about the “conversion of the ginsenoside by PgUGT74A1 and PgUGT94B1 together (HPLC analysis)” value (PgUGT74A1 and PgUGT94B1) of the same molecule?
A: Its value is “successfully converted into Rd”.

Q: With `CC/C=C\C[C@H]1C(=O)CC[C@@H]1CC(=O)OC` [MeJA, Methyl(1R,2R)-3-Oxo-2-(2Z)-2-pentenyl-cyclopentaneacetate] as the molecule, how does the “expression level of PgUGT74A1 after MeJA treatment” value (PgUGT74A1 [3]) read?
A: Its value is “higher expression level”.

Q: What about the “expression level of PgUGT94B1 after MeJA treatment” value (PgUGT94B1 [4]) of the same molecule?
A: Its value is “higher expression level”.

Q: And the “expression of PgDS after MeJA treatment” value [5]?
A: Its value is “enhanced the expression”.

Q: And the “expression of PgPPDS after MeJA treatment” value [6]?
A: The value was “enhanced the expression”.

Q: And the “expression of PgPPTS after MeJA treatment” value [7]?
A: The value was “not induced”.

Q: What about the “increase of the concentration of PPD-type ginsenoside Rb1 by MeJA treatment” value (ginseng) of the same molecule?
A: The value was 1.14 times.

Q: What about the “increase of the concentration of PPD-type ginsenoside Rd by MeJA treatment” value (ginseng) of the same molecule?
A: The value was 1.55 times.

Q: And the “increase of the concentration of PPT-type ginsenoside Re by MeJA treatment” value (ginseng)?
A: The value was 1.45 times.

Q: What about the “increase of the concentration of PPT-type ginsenoside Rg1 by MeJA treatment” value (ginseng) of the same molecule?
A: The value was 2.61 times.

Q: `CC(C)=CCC[C@](C)(O[C@@H]1O[C@H](CO)[C@@H](O)[C@H](O)[C@H]1O)[C@H]1CC[C@]2(C)[C@@H]1[C@H](O)C[C@@H]1[C@@]3(C)CC[C@H](O[C@@H]4O[C@H](CO)[C@@H](O)[C@H](O)[C@H]4O)C(C)(C)[C@@H]3CC[C@]12C` [ginsenoside F2] was tested. Which “conversion of the ginsenoside by PgUGT74A1 (HPLC analysis)” value (PgUGT74A1 [1]) did it give?
A: The value was “did not convert ginsenoside Rh2 and F2”.

Q: And the “conversion of the ginsenoside by PgUGT94B1 (HPLC analysis)” value (PgUGT94B1 [2])?
A: The value was “converted ginsenoside Rh2 and F2 into ginsenoside Rg3 and Rd respectively”.

Q: What about the “conversion of the ginsenoside by PgUGT94B1 (TLC analysis)” value (PgUGT94B1 [2]) of the same molecule?
A: The value was “converted ginsenoside Rh2 and ginsenoside F2 into ginsenoside Rg3 and ginsenoside Rd respectively”.

Q: Which “conversion of the ginsenoside by PgUGT74A1 (HPLC analysis)” value (PgUGT74A1 [1]) does the source give for `CC(C)=CCC[C@](C)(O)[C@H]1CC[C@]2(C)[C@@H]1[C@H](O)C[C@@H]1[C@@]3(C)CC[C@H](O[C@@H]4O[C@H](CO)[C@@H](O)[C@H](O)[C@H]4O)C(C)(C)[C@@H]3CC[C@]12C` [ginsenoside Rh2] here?
A: The value was “did not convert ginsenoside Rh2 and F2”.

Q: And the “conversion of the ginsenoside by PgUGT94B1 (HPLC analysis)” value (PgUGT94B1 [2])?
A: Its value is “converted ginsenoside Rh2 and F2 into ginsenoside Rg3 and Rd respectively”.

Q: What about the “conversion of the ginsenoside by PgUGT94B1 (TLC analysis)” value (PgUGT94B1 [2]) of the same molecule?
A: The value was “converted ginsenoside Rh2 and ginsenoside F2 into ginsenoside Rg3 and ginsenoside Rd respectively”.
